# Where two headings read alike, the source gives them in different places.
# Legend:
# butyryl cholinesterase = molecular target: butyryl cholinesterase; parameters: method as in PMID 23046385; conditions: read-out: inhibitory activity against butyryl cholinesterase IC50; cited from earlier work
# [1] = test system: lung cancer cell line A549; conditions: cited from earlier work
# [2] = test system: healthy and infected hamsters; conditions: cited from earlier work
# promastigotes = test system: promastigotes; parameters: method as in PMID 25448354, PMID 27616730; conditions: in vitro, cited from earlier work
# [3] = parameters: method as in earlier work; conditions: antioxidant activity; cited from earlier work
# [4] = test system: LPS-induced production of NO and PGE2; parameters: method as in PMID 21771629; conditions: dose-dependent; cited from earlier work
# physchem = type: physicochemical; conditions: for light transmittance of the diluted solution: 1 h, 1.82 mM
# Method: All the metabolites obtained during this study were more polar than their parent compound (−)-α-bisabolol (1) and proposed to have higher aqueous solubility. In order to confirm the improvement in solubility, a modified kinetic solubility test was carried out using the stock solutions of compounds 1–12 (20 mM in dimethyl sulfoxide). […] This was confirmed by measuring the light transmittance of the diluted solutions.
# The solubility of compounds 1–12 was evaluated by the modified kinetic solubility assay. Compounds 1–12 were dissolved in dimethyl sulfoxide (DMSO) to yield 20 mM stock solutions, then 10 μL of the compound stock solution was diluted with 100 μL water. After all the solutions were prepared, the vials were placed under room temperature and allowed to mix for 1 h. After this, the light transmittance was measured at a scan width of 5 nm over the range of 390 to 650 nm using a SpectraMax 190 Microplate reader (Molecular Devices, Sunnyvale, CA, USA). After centrifugation, the supernatant was analyzed by HPLC under 200 nm using a Zorbax SB-CN (250 × 10 mm) column with 60% methanol as mobile phase at a flow rate of 2 mL/min.
# [5] = parameters: method as in PMID 24894548; conditions: cited from earlier work
molecule,measurement,setting,value
14-hydroxymethyl caryophyllene oxide,IC50,butyryl cholinesterase,10.9 µM
C=C(CO)C1CCC2=CC(=O)CC(C)C2(C)C1 (centres unmarked) [13-hydroxynootkatone],cytotoxic activity IC50,[1],36 µg/mL
"CC(C)=CCC[C@](C)(O)[C@@H]1CC=C(C)CC1 [Compound 1, (−)-α-Bisabolol]",toxicity or side effects after administration,[2],did not lead to the appearance of toxicity or side effects
same,antileishmanial activity IC50,promastigotes; 24 h,8.07 µg/mL
same,antileishmanial activity IC50,promastigotes; 48 h,4.26 µg/mL
same,IC50 for DPPH radical scavenging ability,[3],43.88 mg/mL
same,effect on LPS-induced production of NO and PGE2,[4],significantly reduce
same,appearance after dilution (turbidity / precipitates),physchem; 10 μL of 20 mM DMSO stock diluted with 100 μL water,White turbidity
same,light transmittance of the diluted solution,physchem,less than 50%
same,solubility at 1 h,"physchem; aqueous with cosolvent or surfactant or cyclodextrin, kinetic from dmso stock",260 µM
same,effect on TPA-induced ear thickness and histopathological damage in the ear tissue,[5],significantly inhibited
"CC(C)=CCC[C@](C)(O)[C@@H]1CC=C(C)[C@H](O)C1 [Compound 2, (1R,5R,7S)-5-hydroxy-α-bisabolol]",light transmittance of the diluted solution,physchem,90%
"CC1=CC[C@@](O)([C@]2(C)CC[C@@H](C(C)(C)O)O2)CC1 [Compound 5, (1R,7S,10S)-1-hydroxybisabolol oxide B]",light transmittance of the diluted solution,physchem,90%
"CC(C)=CCC[C@](C)(O)[C@H]1CC[C@](C)(O)[C@H](O)C1 [Compound 8, (1S,3R,4S,7S)-3,4-dihydroxy-α-bisabolol]",light transmittance of the diluted solution,physchem,90%
"CC(C)=CCC[C@](C)(O)[C@@H]1CC=C(CO)CC1 [Compound 11, 15-hydroxy-α-bisabolol]",light transmittance of the diluted solution,physchem,90%
C=C1CC[C@H]2O[C@]2(C)CC[C@@H]2[C@@H]1CC2(C)C [caryophyllene oxide],IC50,butyryl cholinesterase,208 µM
CC1=CC[C@@H]([C@]2(C)CC[C@H](O)C(C)(C)O2)CC1 [α-Bisabolol oxide A],IC50 for DPPH radical scavenging ability,[3],1.50 mg/mL
